The source made the active and inactive calls.
Experiments:
[1] = Luminescence Cell-Based Dose Response HTS to Identify Activators of Luciferase Translation or Activity in H4 […] Cells. [Related pubchem assays: 1829 (Project Summary), 1814 (Primary HTS)]; assay type: functional
H4 = assay: Luminescence Cell-Based Dose Response HTS to Identify Activators of 5'UTR Stem-Loop Driven Prion Protein mRNA Translation in H4 Neuroglioblastoma Cells. [Related pubchem assays: 1829 (Project Summary), 1814 (Primary HTS)]; assay type: functional; details: Homo sapiens
[2] = molecular target: Potassium voltage-gated channel subfamily KQT member 2 (Rattus norvegicus, UniProt O88943); assay: KCNQ2 channel activators, analog series, SAR follow-up, automated patch clamp, KCNQ2-CHO cells (AID 493113); assay type: functional
[3] = test system: Streptococcus sp. 'group A'; assay: growth inhibition of control SK(-) GAS strain, dose response, counter-screen for streptokinase expression inhibitor project, luminescence, kanamycin, BacTiterGlo, confirmation (AID 1900); assay type: functional, organism-based
Streptokinase A = molecular target: T1, Streptokinase A (Streptococcus pyogenes serotype M1, UniProt P10520); assay: S. pyogenes streptokinase expression inhibitors, potency, dose response, plasminogen activation absorbance, OD405 (AID 1914); assay type: functional, Streptococcus pyogenes M1 GAS;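 note: secreted streptokinase activity via plasminogen activation per viability signal from cell pellet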
T1 sequence (P10520 whole entry): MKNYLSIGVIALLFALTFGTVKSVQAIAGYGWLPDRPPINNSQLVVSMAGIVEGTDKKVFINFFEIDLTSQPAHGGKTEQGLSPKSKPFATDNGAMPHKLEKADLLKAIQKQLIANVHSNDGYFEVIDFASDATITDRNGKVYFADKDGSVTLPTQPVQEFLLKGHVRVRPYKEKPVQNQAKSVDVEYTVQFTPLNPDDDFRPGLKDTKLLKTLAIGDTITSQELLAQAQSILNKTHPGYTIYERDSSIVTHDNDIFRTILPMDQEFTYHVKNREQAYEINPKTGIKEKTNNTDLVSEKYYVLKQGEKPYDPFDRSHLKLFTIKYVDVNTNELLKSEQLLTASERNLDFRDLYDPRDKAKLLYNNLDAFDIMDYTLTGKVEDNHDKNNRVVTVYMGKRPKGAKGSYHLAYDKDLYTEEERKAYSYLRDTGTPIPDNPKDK

[4] = molecular target: T2, G-protein coupled receptor 55 (Homo sapiens, UniProt Q9Y2T6); assay: GPR55 antagonists blocking LPI-driven arrestin recruitment, primary screen, imaging, U2OS, beta-arrestin-GFP, LPI agonist (AID 2013); assay type: functional;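 note: antagonist potency measured as reduced agonist-driven arrestin aggregation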
[5] = molecular target: Peroxisome proliferator-activated receptor gamma/Nuclear receptor corepressor 2 (Homo sapiens, UniProt P37231+Q9Y618); assay: Counterscreen for NR2E3 inverse agonists: TR-FRET-based biochemical high throughput dose response assay to identify inverse agonists of the interaction between peroxisome proliferator-activated receptor gamma (PPARg) and nuclear receptor co-repressor 2 (NCOR2).; assay type: functional
[6] = molecular target: Photoreceptor-specific nuclear receptor (Homo sapiens, UniProt Q9Y5X4); assay: NR2E3 inverse agonists, dose response, biochemical, TR-FRET (AID 463256); assay type: functional
Streptococcus = assay: Group A Streptococcus viability loss, dose response, counter-screen for streptokinase expression inhibitor project, luminescence, BacTiterGlo (AID 1915); assay type: functional, organism-based;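 note: potency for reduction of bacterial viability or growth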
Cannabinoid receptor 1 [7] = molecular target: T3, Cannabinoid receptor 1 (Homo sapiens, UniProt P21554); assay: SAR analysis of antagonists of the Cannabinoid Receptor 1 using an Image-Based Assay - Set 2. [Related pubchem assays (depositor defined):AID2013, AID2026]; assay type: functional
[8] = molecular target: T4, G-protein coupled receptor 35 (Homo sapiens, UniProt Q9HC97); assay: SAR analysis of Agonists of the GPR35 Receptor using an Image-Based Assay - Set 2. [Related pubchem assays (depositor defined):AID2013, AID2026]; assay type: functional
Cannabinoid receptor 2 [9] = molecular target: T5, Cannabinoid receptor 2 (Homo sapiens, UniProt P34972); assay: SAR analysis of antagonists of the Cannabinoid Receptor 2 using an Image-Based Assay. [Related pubchem assays (depositor defined):AID2013, AID2026]; assay type: functional
Cannabinoid receptor 1 [10] = molecular target: T3, Cannabinoid receptor 1; assay: SAR analysis of agonists of the Cannabinoid Receptor 1 using an Image-Based Assay - Set 2. [Related pubchem assays (depositor defined):AID2013, AID2026]; assay type: functional
[11] = molecular target: T4, G-protein coupled receptor 35; assay: SAR analysis of Antagonists of the GPR35 Receptor using an Image-Based Assay - Set 3. [Related pubchem assays (depositor defined):AID2013, AID2026]; assay type: functional
[12] = molecular target: T2, G-protein coupled receptor 55; assay: GPR55 antagonist potency of analogs, SAR follow-up, imaging, U2OS, beta-arrestin-GFP, LPI agonist, set 2 (AID 2820); assay type: functional
Cannabinoid receptor 2 [13] = molecular target: T5, Cannabinoid receptor 2; assay: SAR analysis of agonists of the Cannabinoid Receptor 2 using an Image-Based Assay. [Related pubchem assays (depositor defined):AID2013, AID2026]; assay type: functional
Cytochrome P450 2D6 = Cytochrome P450 2D6 (Homo sapiens, UniProt P10635);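 note: CYP2D6 member of a cytochrome P450 panel assay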
Cytochrome P450 3A4 = Cytochrome P450 3A4 (Homo sapiens, UniProt P08684);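 note: CYP3A4 tested as one member of a cytochrome P450 panel screen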

T2 sequence (Q9Y2T6 whole entry): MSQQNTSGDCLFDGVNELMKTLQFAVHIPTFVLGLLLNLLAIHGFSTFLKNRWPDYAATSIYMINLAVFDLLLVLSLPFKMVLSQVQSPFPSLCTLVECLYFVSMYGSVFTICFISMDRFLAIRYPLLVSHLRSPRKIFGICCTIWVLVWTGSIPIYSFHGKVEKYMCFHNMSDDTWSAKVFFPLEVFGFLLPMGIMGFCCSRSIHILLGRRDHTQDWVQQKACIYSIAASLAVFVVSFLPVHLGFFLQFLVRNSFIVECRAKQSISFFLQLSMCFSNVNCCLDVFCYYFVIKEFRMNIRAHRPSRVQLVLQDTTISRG
T3 sequence (P21554 whole entry): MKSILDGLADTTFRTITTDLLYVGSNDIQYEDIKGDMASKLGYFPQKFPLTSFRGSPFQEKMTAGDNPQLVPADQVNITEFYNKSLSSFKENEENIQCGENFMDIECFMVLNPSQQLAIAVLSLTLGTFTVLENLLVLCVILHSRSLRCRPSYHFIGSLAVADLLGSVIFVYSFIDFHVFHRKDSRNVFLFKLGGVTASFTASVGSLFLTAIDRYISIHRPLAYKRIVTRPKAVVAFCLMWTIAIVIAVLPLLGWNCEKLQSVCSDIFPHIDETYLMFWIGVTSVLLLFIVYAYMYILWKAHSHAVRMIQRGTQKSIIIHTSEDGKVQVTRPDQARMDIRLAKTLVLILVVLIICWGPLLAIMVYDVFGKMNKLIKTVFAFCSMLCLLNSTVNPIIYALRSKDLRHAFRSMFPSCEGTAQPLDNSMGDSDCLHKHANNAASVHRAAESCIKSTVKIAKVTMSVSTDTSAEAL
T4 sequence (Q9HC97 whole entry): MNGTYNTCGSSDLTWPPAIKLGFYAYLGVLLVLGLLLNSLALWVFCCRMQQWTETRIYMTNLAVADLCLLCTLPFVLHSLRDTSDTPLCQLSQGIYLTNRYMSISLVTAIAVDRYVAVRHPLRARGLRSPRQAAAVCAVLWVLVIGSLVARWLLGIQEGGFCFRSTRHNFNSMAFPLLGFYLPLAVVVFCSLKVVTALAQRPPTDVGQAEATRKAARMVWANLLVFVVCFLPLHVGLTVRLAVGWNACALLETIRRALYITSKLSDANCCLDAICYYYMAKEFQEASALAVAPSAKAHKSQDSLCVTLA
T5 sequence (P34972 whole entry): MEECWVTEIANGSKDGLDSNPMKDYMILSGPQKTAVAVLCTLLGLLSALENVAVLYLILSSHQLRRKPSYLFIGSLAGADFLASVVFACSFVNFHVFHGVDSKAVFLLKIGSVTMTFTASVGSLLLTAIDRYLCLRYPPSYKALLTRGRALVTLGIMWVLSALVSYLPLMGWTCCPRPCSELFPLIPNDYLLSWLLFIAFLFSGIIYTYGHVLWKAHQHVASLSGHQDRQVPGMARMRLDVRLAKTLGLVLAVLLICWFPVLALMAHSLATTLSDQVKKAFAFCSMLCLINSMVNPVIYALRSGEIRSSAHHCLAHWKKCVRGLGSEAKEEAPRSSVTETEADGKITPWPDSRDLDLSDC
Chain of Peroxisome proliferator-activated receptor gamma/Nuclear receptor corepressor 2 (P37231 whole entry): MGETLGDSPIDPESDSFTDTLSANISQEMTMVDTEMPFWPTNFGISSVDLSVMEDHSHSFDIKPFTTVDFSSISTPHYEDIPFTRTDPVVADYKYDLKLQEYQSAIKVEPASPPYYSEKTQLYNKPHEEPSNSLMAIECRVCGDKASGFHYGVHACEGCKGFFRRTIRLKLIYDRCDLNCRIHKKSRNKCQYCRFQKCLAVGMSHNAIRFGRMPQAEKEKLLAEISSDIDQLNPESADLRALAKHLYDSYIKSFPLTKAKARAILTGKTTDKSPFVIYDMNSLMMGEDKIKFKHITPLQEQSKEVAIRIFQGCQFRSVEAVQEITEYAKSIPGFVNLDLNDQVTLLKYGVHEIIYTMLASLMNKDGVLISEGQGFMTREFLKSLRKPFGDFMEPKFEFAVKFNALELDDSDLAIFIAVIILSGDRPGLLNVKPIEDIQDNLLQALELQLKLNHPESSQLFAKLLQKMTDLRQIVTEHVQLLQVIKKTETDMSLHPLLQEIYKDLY
Chain of Peroxisome proliferator-activated receptor gamma/Nuclear receptor corepressor 2 (Q9Y618 whole entry): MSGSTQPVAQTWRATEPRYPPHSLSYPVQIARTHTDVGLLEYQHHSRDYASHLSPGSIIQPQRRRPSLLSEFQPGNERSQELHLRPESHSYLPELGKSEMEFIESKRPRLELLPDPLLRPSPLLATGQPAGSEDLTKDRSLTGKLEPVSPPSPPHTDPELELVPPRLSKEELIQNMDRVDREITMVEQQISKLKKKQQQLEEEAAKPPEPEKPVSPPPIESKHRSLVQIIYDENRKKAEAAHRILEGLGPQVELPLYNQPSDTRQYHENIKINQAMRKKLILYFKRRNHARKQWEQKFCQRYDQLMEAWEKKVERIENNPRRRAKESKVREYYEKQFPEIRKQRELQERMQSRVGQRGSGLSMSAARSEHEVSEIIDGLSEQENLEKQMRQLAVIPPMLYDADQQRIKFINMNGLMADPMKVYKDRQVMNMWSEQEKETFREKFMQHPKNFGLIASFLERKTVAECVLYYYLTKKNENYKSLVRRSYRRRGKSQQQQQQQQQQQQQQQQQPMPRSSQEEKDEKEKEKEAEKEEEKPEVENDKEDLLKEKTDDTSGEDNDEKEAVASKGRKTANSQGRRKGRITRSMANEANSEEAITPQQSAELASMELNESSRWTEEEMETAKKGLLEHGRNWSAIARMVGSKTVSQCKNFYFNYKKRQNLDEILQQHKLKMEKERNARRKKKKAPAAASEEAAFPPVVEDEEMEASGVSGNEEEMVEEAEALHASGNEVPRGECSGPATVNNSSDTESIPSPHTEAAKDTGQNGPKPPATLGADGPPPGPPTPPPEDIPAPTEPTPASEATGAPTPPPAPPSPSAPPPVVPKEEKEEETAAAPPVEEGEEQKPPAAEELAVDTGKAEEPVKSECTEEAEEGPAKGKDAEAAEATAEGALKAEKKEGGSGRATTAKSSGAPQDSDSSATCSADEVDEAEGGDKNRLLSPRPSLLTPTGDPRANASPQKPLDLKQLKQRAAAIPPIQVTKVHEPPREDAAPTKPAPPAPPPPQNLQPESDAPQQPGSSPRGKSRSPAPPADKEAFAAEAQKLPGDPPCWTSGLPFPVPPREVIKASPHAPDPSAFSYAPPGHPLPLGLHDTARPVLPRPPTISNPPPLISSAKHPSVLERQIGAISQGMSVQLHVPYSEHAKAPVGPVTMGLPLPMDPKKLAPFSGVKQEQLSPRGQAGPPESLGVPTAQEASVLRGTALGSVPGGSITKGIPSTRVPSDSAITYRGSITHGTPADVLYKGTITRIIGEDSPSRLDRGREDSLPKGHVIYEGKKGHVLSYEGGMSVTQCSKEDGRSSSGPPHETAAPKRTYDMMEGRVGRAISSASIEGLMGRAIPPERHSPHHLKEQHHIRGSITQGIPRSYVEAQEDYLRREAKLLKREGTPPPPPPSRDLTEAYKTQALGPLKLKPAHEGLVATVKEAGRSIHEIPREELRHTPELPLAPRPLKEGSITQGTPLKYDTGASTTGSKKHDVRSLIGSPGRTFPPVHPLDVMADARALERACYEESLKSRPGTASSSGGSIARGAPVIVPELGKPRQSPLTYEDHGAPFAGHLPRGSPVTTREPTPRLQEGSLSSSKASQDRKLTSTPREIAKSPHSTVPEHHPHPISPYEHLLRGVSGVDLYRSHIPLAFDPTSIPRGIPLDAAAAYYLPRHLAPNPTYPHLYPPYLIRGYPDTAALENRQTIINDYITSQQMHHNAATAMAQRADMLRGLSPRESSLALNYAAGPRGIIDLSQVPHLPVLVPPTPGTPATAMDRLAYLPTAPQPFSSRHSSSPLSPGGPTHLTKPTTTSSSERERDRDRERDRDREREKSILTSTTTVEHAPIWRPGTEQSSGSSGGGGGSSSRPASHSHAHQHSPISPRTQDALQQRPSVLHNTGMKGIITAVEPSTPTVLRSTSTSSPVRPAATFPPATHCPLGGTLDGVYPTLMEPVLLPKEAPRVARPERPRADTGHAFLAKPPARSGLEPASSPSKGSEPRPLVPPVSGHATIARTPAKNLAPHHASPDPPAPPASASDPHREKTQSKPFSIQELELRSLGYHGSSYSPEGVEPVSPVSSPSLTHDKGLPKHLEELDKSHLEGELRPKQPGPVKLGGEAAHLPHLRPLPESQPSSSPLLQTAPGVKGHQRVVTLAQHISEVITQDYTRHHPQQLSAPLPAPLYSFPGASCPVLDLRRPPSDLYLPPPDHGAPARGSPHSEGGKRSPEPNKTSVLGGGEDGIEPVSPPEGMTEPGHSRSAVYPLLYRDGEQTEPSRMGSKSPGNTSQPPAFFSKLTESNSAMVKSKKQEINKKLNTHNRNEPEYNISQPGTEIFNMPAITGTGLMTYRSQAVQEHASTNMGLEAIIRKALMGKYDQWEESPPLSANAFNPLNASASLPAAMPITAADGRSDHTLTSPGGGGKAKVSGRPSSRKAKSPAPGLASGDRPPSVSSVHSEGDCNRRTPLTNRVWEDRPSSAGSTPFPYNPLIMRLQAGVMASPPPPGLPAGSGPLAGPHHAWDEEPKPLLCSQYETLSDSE
Chain of Photoreceptor-specific nuclear receptor (Q9Y5X4 whole entry): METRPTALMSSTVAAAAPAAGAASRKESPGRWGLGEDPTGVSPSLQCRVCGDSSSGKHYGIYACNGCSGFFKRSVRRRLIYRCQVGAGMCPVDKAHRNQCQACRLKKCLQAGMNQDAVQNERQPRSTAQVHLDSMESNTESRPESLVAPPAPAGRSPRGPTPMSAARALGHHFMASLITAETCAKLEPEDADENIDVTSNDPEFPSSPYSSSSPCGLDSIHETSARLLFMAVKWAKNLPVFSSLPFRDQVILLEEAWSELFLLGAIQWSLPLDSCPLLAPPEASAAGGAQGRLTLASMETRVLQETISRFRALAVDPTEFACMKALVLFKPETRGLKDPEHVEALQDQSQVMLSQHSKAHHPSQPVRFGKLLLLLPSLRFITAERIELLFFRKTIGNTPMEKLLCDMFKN

In the case of `CC(C)c1ccc(NC(=O)C2CC3CCC2C3)cc1` (stereo not drawn), the EC50 [1] is reported as 0.432 µM (active), the EC50 (H4) is reported as 65.4 µM (active) and the EC50 [2] is reported as 0.72 µM (active).
For `Cc1nnc(-c2cccc(Br)c2)c2cn(-c3ccc(Br)cc3)nc12`, the EC50 [3] was 3.53 µM (active), the EC50 (Streptokinase A) was 19.2 µM (active) and the IC50 [4] was 0.915 µM (active). For the same molecule, the IC50 [5] was 14.5 µM (not active), the IC50 [6] was 18.8 µM (not active) and the EC50 (Streptococcus) was 28.4 µM (active). For the same molecule, the IC50 (Cannabinoid receptor 1 [7]) was 13.9 µM (inactive), the EC50 [8] was > 32 µM (inactive) and the IC50 (Cannabinoid receptor 2 [9]) was > 32 µM (inactive). The EC50 (Cannabinoid receptor 1 [10]) was > 32 µM (inactive), the IC50 [11] was > 32 µM (inactive) and the IC50 [12] was 0.893 µM (active). For the same molecule, the EC50 (Cannabinoid receptor 2 [13]) was > 32 µM (inactive), the AC50 (Cytochrome P450 2D6) was 12.6 µM (inconclusive) and the AC50 (Cytochrome P450 3A4) was “inconclusive”.

Reference: ChEMBL document CHEMBL1201862, “PubChem BioAssay data set” (2004)
